PubChem BioAssay AID2060899 (Molecular Pharmacology Branch, DTP, NCI, 2025)

Tested on: 565726-208-R1-J5-PDC complex spheroids, growth inhibition
Experiment: Anticancer human tumor 565726-208-R1-J5-PDC patient-derived pancreatic adenocarcinoma cell line growth inhibition [RAS]
Details: for IC50: curve of first compound; for viability, T/C: stronger effect = lower value
Description: RAS pathway inhibitors in Combinations in Complex Spheroids
A high-throughput screen of multi-cell type tumor spheroids was designed to identify active combinations of RAS pathway inhibitors and targeted small molecules. Complex spheroids include a stromal component modeled by human endothelial cells (HUVEC) and fibroblasts modeled by human mesenchymal stem cells (MSCs). The concentration ranges selected for each drug and investigational agent were based upon clinically achievable concentrations if the clinical Cmax of the agent was known.
Compounds. The drugs and investigational agents: abemaciclib (NSC768073), cobimetinib (NSC768068), divarasib (GDC6063, NSC841802), docetaxel (NSC628503), GDC-1971 (RLY-1971, NSC841576), gemcitabine (NSC613327), inavolisib (NSC800729), ipatasertib (NSC767898), KB-0742 (NSC834161), MRTX-1133 (NSC836407), osimertinib (NSC779217), RMC-4630 (NSC839698), RMC-6236 (NSC851965), RMC-6291 (NSC852671), Ro-3306 (NSC812927), sapanisertib (NSC764658), SN-38 (NSC673596), staurosporine (NSC755774), SY5609 (NSC837396), and tovorafenib (DAY101, NSC766906), were obtained from the National Cancer Institute (NCI) Developmental Therapeutics Program Chemical Repository. The FDA-approved anticancer drug set is available from the NCI Developmental Therapeutics Program. […] The stock solutions were prepared in dimethyl sulfoxide (DMSO, Sigma-Aldrich, St. Louis, MO, cat. D2650) at 800-fold the tested concentration and stored at -70 degrees C prior to their use. All drugs and investigational agents were tested over a range starting from a high concentration at or near the clinical Cmax and decreasing in half-log increments. If the clinical Cmax for an agent had not been determined, the highest concentration tested was 10 microM.
Cell Culture. All cells were maintained in an incubator at 37 degrees C and 5% CO2 with 95% humidity. The PDC lines were cultured according to standard operating procedures established by the NCI PDMR. All PDCs were thawed and cultured in Matrigel-coated flasks prepared with a working solution of 1X Ham's F-12 nutrient mix, without supplementation (Invitrogen, Waltham, MA, cat. 11765054), 100 U/mL penicillin-streptomycin (Invitrogen, cat. 15140122), and 2.5% Matrigel (Corning Inc., Corning, NY, cat. 354248) for the first three passages. The 362531-283-R-J2-PDC and 782815-120-R-J1-PDC lines were cultured in 6C/Colon 1B media, which includes advanced DMEM/F-12 (Thermo Fisher Scientific, cat. 12634028), 10 mM HEPES (Thermo Fisher Scientific, cat. 15630080), 1X GlutaMAX supplement (Thermo Fisher Scientific, cat. 35050061), 0.1 mg/mL primocin (InvivoGen, San Diego, CA, cat. ant-pm-2), 10% defined fetal bovine serum, heat inactivated (HyClone Laboratories Inc., Logan, UT, cat. SH30070.03HI), 50% L-WRN conditioned media (ATCC, cat. CRL-3276), 1.25 mM N-Acetyl-L-cysteine (Sigma-Aldrich, cat. A9165), 10 mM nicotinamide (Sigma-Aldrich, cat. N0636), 1X B-27 supplement (Thermo Fisher Scientific, cat. 17504044), 1X N-2 supplement (Thermo Fisher Scientific, cat. 17502048), 50 ng/mL human EGF (Thermo Fisher Scientific, cat. PHG0311), and 10 microM Y-27632 dihydrochloride (Tocris Bioscience, cat. 1254). The K12877-001-R-J1-PDC line was cultured in 6I media, which includes all 6C/Colon 1B media plus 10 ng/mL human FGF-10 (PeproTech, cat. 100-26), 1 ng/mL human FGF-2 (PeproTech, cat. 100-18B), 1 µM prostaglandin E2 (Tocris Bioscience, cat. 2296), […] hydrocortisone (Sigma-Aldrich, cat. H4001), and […] bovine insulin (Sigma-Aldrich, cat. I6634). The K86415-001-R-J1-PDC line was cultured in 6D media, which includes all 6C/Colon 1B media components minus the L-WRN conditioned media. The 485176-168-R4-J1-PDC was cultured in PANC media, which includes all 6C/Colon 1B media plus 100 ng/mL human FGF-10 (PeproTech, cat. 100-26), 500 nM SB-431542 (Selleckchem, cat. S1067), and 10 nM gastrin (Tocris Bioscience, cat. 3006). […]
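Note: spheroids exposed to compounds for seven days before readout.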
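Throughout, for viability, T/C: 100% = DMSO vehicle control viability.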

CC(C)NCC(C(=O)N1CCN(c2ncnc3c2C(C)CC3O)CC1)c1ccc(Cl)cc1 (configuration not stated) + CCn1c(-c2cccnc2C(C)OC)c2c3cc(ccc31)N1CCOC(CC(NC(=O)C(C(C)C)N(C)C(=O)C3(F)CCN(C(=O)C#CC(C)(C)N(C)C)CC3)C(=O)N3CCCC(N3)C(=O)OCC(C)(C)C2)C1
IC50 (second compound 0.000949 µM): > 10 µM | IC50 (second compound 0.003 µM): > 10 µM | IC50 (second compound 0.00949 µM): > 10 µM | IC50 (second compound 0.03 µM): > 10 µM | IC50 (second compound 0.0949 µM): > 10 µM | IC50 (second compound 0.3 µM): 7.56 µM | viability, T/C (second compound 0.000949 µM, first compound 0.0316 µM): 106% | viability, T/C (second compound 0.000949 µM, first compound 0.1 µM): 94.1% | viability, T/C (second compound 0.000949 µM, first compound 0.316 µM): 97.6% | viability, T/C (second compound 0.000949 µM, first compound 1 µM): 85.1% | viability, T/C (second compound 0.000949 µM, first compound 3.16 µM): 74% | viability, T/C (second compound 0.000949 µM, first compound 10 µM): 56.6% | viability, T/C (second compound 0.003 µM, first compound 0.0316 µM): 105% | viability, T/C (second compound 0.003 µM, first compound 0.1 µM): 99.2% | viability, T/C (second compound 0.003 µM, first compound 0.316 µM): 105% | viability, T/C (second compound 0.003 µM, first compound 1 µM): 94.7% | viability, T/C (second compound 0.003 µM, first compound 3.16 µM): 84.2% | viability, T/C (second compound 0.003 µM, first compound 10 µM): 59.4% | viability, T/C (second compound 0.00949 µM, first compound 0.0316 µM): 96% | viability, T/C (second compound 0.00949 µM, first compound 0.1 µM): 104% | viability, T/C (second compound 0.00949 µM, first compound 0.316 µM): 94.3% | viability, T/C (second compound 0.00949 µM, first compound 1 µM): 99.8% | viability, T/C (second compound 0.00949 µM, first compound 3.16 µM): 88.1% | viability, T/C (second compound 0.00949 µM, first compound 10 µM): 57.1% | viability, T/C (second compound 0.03 µM, first compound 0.0316 µM): 101% | viability, T/C (second compound 0.03 µM, first compound 0.1 µM): 95.5% | viability, T/C (second compound 0.03 µM, first compound 0.316 µM): 106% | viability, T/C (second compound 0.03 µM, first compound 1 µM): 89.4% | viability, T/C (second compound 0.03 µM, first compound 3.16 µM): 84.4% | viability, T/C (second compound 0.03 µM, first compound 10 µM): 56.5% | viability, T/C (second compound 0.0949 µM, first compound 0.0316 µM): 93.5% | viability, T/C (second compound 0.0949 µM, first compound 0.1 µM): 98.8% | viability, T/C (second compound 0.0949 µM, first compound 0.316 µM): 96.9% | viability, T/C (second compound 0.0949 µM, first compound 1 µM): 86.5% | viability, T/C (second compound 0.0949 µM, first compound 3.16 µM): 85.5% | viability, T/C (second compound 0.0949 µM, first compound 10 µM): 57.7% | viability, T/C (second compound 0.3 µM, first compound 0.0316 µM): 95.2% | viability, T/C (second compound 0.3 µM, first compound 0.1 µM): 87% | viability, T/C (second compound 0.3 µM, first compound 0.316 µM): 85.8% | viability, T/C (second compound 0.3 µM, first compound 1 µM): 80.8% | viability, T/C (second compound 0.3 µM, first compound 3.16 µM): 70.7% | viability, T/C (second compound 0.3 µM, first compound 10 µM): 43.2%
